Data reported in ChEMBL document CHEMBL1201862, “PubChem BioAssay data set” (2004).
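In this assay, cells in 96-well plates receive the compound at five concentrations for 48 hours. Endpoints are linearly interpolated between the surrounding concentrations. At the GI50, growth is halved.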 The source made the active and inactive calls. Rule as the data show it: active = GI50 up to about 1.1 µM and inactive = higher.

Columns and labels:
Assay in all cases: NCI anticancer screen, dose series, 48 h
[1] = test system: A549
[2] = test system: SK-MEL-5
[3] = test system: ACHN
[4] = test system: EKVX
[5] = test system: NCI-H23
[6] = test system: CCRF-CEM
[7] = test system: MDA-MB-435
[8] = test system: PC-3
[9] = test system: SK-MEL-28
[10] = test system: U-251
[11] = test system: SNB-19
[12] = test system: 786-0
[13] = test system: MDA-N
[14] = test system: A498
[15] = test system: HL-60
[16] = test system: OVCAR-4
[17] = test system: M14
[18] = test system: SK-OV-3
[19] = test system: HT-29
[20] = test system: T47D

SMILES | GI50 [1] | GI50 [2] | GI50 [3] | GI50 [4] | GI50 [5] | GI50 [6] | GI50 [7] | GI50 [8] | GI50 [9] | GI50 [10] | GI50 [11] | GI50 [12] | GI50 [13] | GI50 [14] | GI50 [15] | GI50 [16] | GI50 [17] | GI50 [18] | GI50 [19] | GI50 [20]
O=C1C[C@H]2[C@H](c3ccc(Br)cc3)[C@H]3C(=O)c4ccccc4NC(=O)[C@@H]3[C@@]2(O)c2ccccc2N1 | 11.6 µM (inactive) | 19.3 µM (inactive) | 11.2 µM (inactive) | 48.6 µM (inactive) | 10.4 µM (inactive) | 10.6 µM (inactive) | 10 µM (inactive) | 8.15 µM (inactive) | 26.5 µM (inactive) | 22.1 µM (inactive) | 38.2 µM (inactive) | 19.4 µM (inactive) | 17.1 µM (inactive) | 8.34 µM (inactive) | 3.09 µM (inactive) | 12.5 µM (inactive) | 12.3 µM (inactive) | 21 µM (inactive) | 10.7 µM (inactive) | –
Cc1cc(C(=O)CBr)c(CN2C(=O)c3ccccc3C2=O)c(=O)n1C | 18.8 µM (inactive) | – | 8.47 µM (inactive) | 2.21 µM (inactive) | 80.4 µM (inactive) | 2.92 µM (inactive) | 20.3 µM (inactive) | 17.2 µM (inactive) | 20.4 µM (inactive) | 12.7 µM (inactive) | 33.3 µM (inactive) | 21.8 µM (inactive) | – | – | 5.09 µM (inactive) | 14.7 µM (inactive) | 43.1 µM (inactive) | > 100 µM (inactive) | 14.2 µM (inactive) | 25.5 µM (inactive)
CC(C)C(Sc1nc(-c2ccccc2)c(-c2ccccc2)[nH]1)C(=O)N/N=C/c1ccc([N+](=O)[O-])cc1 (centres undefined) | 27.3 µM (inactive) | 9.23 µM (inactive) | 15.6 µM (inactive) | 20.4 µM (inactive) | 16.7 µM (inactive) | 4.05 µM (inactive) | – | – | 15.5 µM (inactive) | 14.6 µM (inactive) | 17.3 µM (inactive) | 14.3 µM (inactive) | – | 20.5 µM (inactive) | 13.6 µM (inactive) | 16 µM (inactive) | 7.33 µM (inactive) | 22.8 µM (inactive) | 6.44 µM (inactive) | –
COc1ccc2nc(NC(=O)C(=O)NNC(=O)c3ccncc3)sc2c1 | > 100 µM (inactive) | > 100 µM (inactive) | > 100 µM (inactive) | > 100 µM (inactive) | > 100 µM (inactive) | > 100 µM (inactive) | – | – | > 100 µM (inactive) | > 100 µM (inactive) | > 100 µM (inactive) | > 100 µM (inactive) | – | > 100 µM (inactive) | > 100 µM (inactive) | > 100 µM (inactive) | > 100 µM (inactive) | > 100 µM (inactive) | > 100 µM (inactive) | –
c1ccc2c(c1)C1CCCCCC21N1CCOCC1 (centres undefined) | > 100 µM (inactive) | 44.2 µM (inactive) | > 100 µM (inactive) | – | > 100 µM (inactive) | 97.7 µM (inactive) | – | – | > 100 µM (inactive) | 78.5 µM (inactive) | 29.7 µM (inactive) | > 100 µM (inactive) | – | > 100 µM (inactive) | 44.6 µM (inactive) | 91 µM (inactive) | 98.2 µM (inactive) | > 100 µM (inactive) | 86.3 µM (inactive) | –
CSCCCNC(=O)c1csc(-c2csc(CCN)n2)n1 | > 100 µM (inactive) | 93.1 µM (inactive) | > 100 µM (inactive) | > 100 µM (inactive) | > 100 µM (inactive) | 75.2 µM (inactive) | > 100 µM (inactive) | > 100 µM (inactive) | > 100 µM (inactive) | > 100 µM (inactive) | > 100 µM (inactive) | > 100 µM (inactive) | – | – | > 100 µM (inactive) | > 100 µM (inactive) | > 100 µM (inactive) | > 100 µM (inactive) | 82.8 µM (inactive) | 74.1 µM (inactive)
C=C[C@]1(C)CCC2=C(CCC3C2(C)CCC[C@@]3(C)COC(C)=O)C1 (some centres undefined) | 22.8 µM (inactive) | 16.9 µM (inactive) | 17.5 µM (inactive) | 19.5 µM (inactive) | 22 µM (inactive) | 17.6 µM (inactive) | – | – | 33.1 µM (inactive) | 17.8 µM (inactive) | 17.6 µM (inactive) | 17.3 µM (inactive) | – | 25.4 µM (inactive) | 19.7 µM (inactive) | 19.7 µM (inactive) | 20.9 µM (inactive) | 18.5 µM (inactive) | 18.7 µM (inactive) | –
Cc1cccc2c1c(=O)c1c(O)cc(O)cc1n2C | > 100 µM (inactive) | 34.2 µM (inactive) | > 100 µM (inactive) | 85.1 µM (inactive) | > 100 µM (inactive) | > 100 µM (inactive) | > 100 µM (inactive) | > 100 µM (inactive) | > 100 µM (inactive) | > 100 µM (inactive) | > 100 µM (inactive) | > 100 µM (inactive) | > 100 µM (inactive) | 59 µM (inactive) | > 100 µM (inactive) | > 100 µM (inactive) | 55 µM (inactive) | 66.1 µM (inactive) | 72.3 µM (inactive) | –
COc1cc(C2c3cc4c(cc3[C@@H](OCCN(C)C)C3COC(=O)[C@H]23)OCO4)cc(OC)c1O (some centres undefined) | 0.0655 µM (active) | 0.183 µM (active) | 0.1 µM (active) | 1.65 µM (inactive) | 0.237 µM (active) | 0.0419 µM (active) | – | – | 0.993 µM (active) | 0.0849 µM (active) | 0.207 µM (active) | 0.139 µM (active) | – | 0.167 µM (active) | 0.036 µM (active) | 2.07 µM (inactive) | 0.384 µM (active) | 0.163 µM (active) | 0.902 µM (active) | –
CC(C)(C)c1cc(COc2c3sc(=S)sc3c(OCc3cc(C(C)(C)C)cc(C(C)(C)C)c3)c3sc(=S)sc23)cc(C(C)(C)C)c1 | > 100 µM (inactive) | > 100 µM (inactive) | > 100 µM (inactive) | > 100 µM (inactive) | > 100 µM (inactive) | > 100 µM (inactive) | – | – | > 100 µM (inactive) | > 100 µM (inactive) | > 100 µM (inactive) | > 100 µM (inactive) | – | > 100 µM (inactive) | > 100 µM (inactive) | > 100 µM (inactive) | > 100 µM (inactive) | > 100 µM (inactive) | > 100 µM (inactive) | –
CC(C)OC(=O)NCCn1cc(-c2ccccc2)nn1 | > 100 µM (inactive) | > 100 µM (inactive) | > 100 µM (inactive) | > 100 µM (inactive) | > 100 µM (inactive) | > 100 µM (inactive) | > 100 µM (inactive) | > 100 µM (inactive) | > 100 µM (inactive) | > 100 µM (inactive) | > 100 µM (inactive) | > 100 µM (inactive) | – | – | > 100 µM (inactive) | > 100 µM (inactive) | > 100 µM (inactive) | – | > 100 µM (inactive) | –
Cc1nn(C)cc1P(=S)(c1ccccc1)c1ccccc1 | 55 µM (inactive) | > 100 µM (inactive) | 61.7 µM (inactive) | > 100 µM (inactive) | > 100 µM (inactive) | 31.8 µM (inactive) | – | – | > 100 µM (inactive) | 92.5 µM (inactive) | > 100 µM (inactive) | > 100 µM (inactive) | – | > 100 µM (inactive) | 18.6 µM (inactive) | > 100 µM (inactive) | 71.6 µM (inactive) | 24.8 µM (inactive) | 50.4 µM (inactive) | –
CCOC(=O)C1CCCCc2sc(N)c(C#N)c21 (centres undefined) | > 100 µM (inactive) | > 100 µM (inactive) | > 100 µM (inactive) | > 100 µM (inactive) | > 100 µM (inactive) | – | – | > 100 µM (inactive) | > 100 µM (inactive) | > 100 µM (inactive) | > 100 µM (inactive) | > 100 µM (inactive) | > 100 µM (inactive) | > 100 µM (inactive) | > 100 µM (inactive) | – | > 100 µM (inactive) | – | > 100 µM (inactive) | –
C/C(=N\O)c1sc(-n2nc(-c3ccccc3)cc2-c2ccccc2)nc1C | 14.2 µM (inactive) | 12 µM (inactive) | 11.9 µM (inactive) | 6.35 µM (inactive) | 8.15 µM (inactive) | 12.3 µM (inactive) | – | – | 12.9 µM (inactive) | 11.7 µM (inactive) | 12.2 µM (inactive) | 11.2 µM (inactive) | – | 25.4 µM (inactive) | 14 µM (inactive) | > 10 µM (inactive) | 13.2 µM (inactive) | > 10 µM (inactive) | 13 µM (inactive) | –
COc1c(Cl)c2c(c(OC)c1OC)-c1ccc(OC)c(=O)c(Cl)c1C(NC(C)=O)CC2 (centres undefined) | 0.225 µM (active) | 0.141 µM (active) | 0.668 µM (active) | 7.35 µM (inactive) | 0.269 µM (active) | 0.305 µM (active) | – | – | 0.288 µM (active) | 0.235 µM (active) | 1.43 µM (inactive) | 0.308 µM (active) | – | 0.0593 µM (active) | 0.169 µM (active) | 27.1 µM (inactive) | 0.244 µM (active) | 0.133 µM (active) | 0.156 µM (active) | –
COc1cc(/C=C/c2ccc(OC)c(OC)c2)cc(OC)c1 [(E)-3,4,3',5'-TETRAMETHOXYSTILBENE] | 37.8 µM (inactive) | 19 µM (inactive) | 30.5 µM (inactive) | 39.9 µM (inactive) | 22.9 µM (inactive) | 76.9 µM (inactive) | 25.7 µM (inactive) | 62.7 µM (inactive) | 36.2 µM (inactive) | 24.7 µM (inactive) | 84.9 µM (inactive) | 20.7 µM (inactive) | – | – | – | 53.2 µM (inactive) | 28.1 µM (inactive) | 73.6 µM (inactive) | 19.3 µM (inactive) | 23.6 µM (inactive)
